# Assay results from patent US5440041A, “Acetal or ketal substituted xanthine compounds” (Cell Therapeutics, Inc., priority 1994, dated 1995).
# Legend:
# certain cytokines = details: U.S. Pat. No. 4,965,271 and U.S. Pat. No. 5,096,906; cited from earlier work
# PAPH = test: Inhibition of PAPH; format: biochemical; details: specific activation pathway not involving PI; substrates with 1,2-diunsaturated and 1-alkyl,2-unsaturated subspecies
# Experimental: One in vitro assay measures inhibition of the relevant enzymes lysophosphatidic acid acyltransferase (LPAAT) and phosphatidic acid phosphoryl hydrolase (PAPH). The assay involves incubating of target cells with a primary stimulus (e.g., a variety of cytokines, growth factors, oncogene products, putative therapeutic agents, irradiation, viral infection, toxins, bacterial infection and the products thereof, and any stimulus which, if not counteracted, has a deleterious effect on the target cell) in the presence or absence of an inventive compound at varying dosage levels. […] It is important to note that the assay method permits discrimination between various forms of PA and DAG so that those relevant to the pathway affected by the (R) or (S) compounds of the invention can be measured directly. […] Thus, the relevant unsaturated (non-arachidonic) PA and DAG subspecies may be detected. […]
# [1] = tested on: tumor necrosis factor (TNF); details: PTX recipients; cited from earlier work
# [2] = tested on: polymorphonuclear leukocytes; details: in response to a stimulator of chemotaxis; U.S. Pat. No. 4,636,507; cited from earlier work
structure (smiles),measurement,setting,value
"CC(=O)CCCCn1c(=O)c2c(ncn2C)n(C)c1=O [PTX, 1-(5-oxohexyl)-3,7-dimethylxanthine]",effect on activity of certain cytokines to affect chemotaxis,certain cytokines,inhibit activity of certain cytokines to affect chemotaxis
same,effect on PAPH,PAPH,blocks PAPH in a specific activation pathway
same,TNF levels in normal volunteers,[1],higher among PTX recipients
same,effect on chemotaxis in polymorphonuclear leukocytes,[2],stimulate chemotaxis
